Data set [1] can be described thus: Half life in rat at 0.5 mg/kg, iv and 10 mg/kg, po. It is filed as ADME, organism-based. Conditions: in vivo.
Data set [2] is described as follows: Clearance in rat at 0.5 mg/kg, iv and 10 mg/kg, po. It counts as ADME, organism-based. The note with it: in vivo.
The nature of data set [3]: Volume of distribution in rat at 0.5 mg/kg, iv and 10 mg/kg, po. It counts as ADME, organism-based. The note with it: in vivo.
Data set [4] in a line: Oral bioavailability in rat at 10 mg/kg, po. Conditions: in vivo. It counts as ADME, organism-based.
Data set [5] in a line: physchem. Conditions: octanol/water, pH 7.4.
Data set [6] is described as follows: in vitro. The note with it: human, liver microsomes. (In general: Microsomes from liver hold many membrane-bound enzymes, among them those of drug oxidation.)
Data set [7] is described as follows: Lipophilicity, log P of the compound. It is filed as physicochemical. The note with it: octanol/water.
The nature of data set [8]: Half life in dog at 0.5 mg/kg, iv. It counts as ADME, organism-based, Canis lupus familiaris. Also noted: dose 0.5 mg/kg, route intravenous. Conditions: in vivo.
Data set [9] is described as follows: Clearance in dog at 0.5 mg/kg, iv. It is filed as ADME, organism-based, Canis lupus familiaris. Further details: dose 0.5 mg/kg, route intravenous. The note with it: in vivo.
Data set [10] is described as follows: Volume of distribution in dog at 0.5 mg/kg, iv. It counts as ADME, organism-based, Canis lupus familiaris. Also noted: dose 0.5 mg/kg, route intravenous. Conditions: in vivo.

As a reminder, the half-life is the time needed for the level to fall by half in the phase considered. Low values mean rapid decline, high ones slow decline. What is called bioavailability is the share of a dose that reaches the circulation, judged against a reference dose that is usually intravenous. A high value points to good availability. What is called logD is the decadic logarithm of the distribution of all forms, ionised or not, between an organic phase and buffer at a given pH. High values mean a more lipophilic compound, low ones a more hydrophilic compound. The logP is a log measure of how a compound divides between an organic and an aqueous phase. Read a low logP as a more hydrophilic compound.

Some results are limits rather than exact numbers.

`O=C(c1csc2ccccc12)N(CCc1ccc(Cl)cc1)[C@H]1CC[C@H](O)CC1`: the half-life in [1] is 30 min; in data set [6], 14 min. The molecule further had a clearance in data set [2] of 67 mL/min/kg. The molecule further gave a Vd in data set [3] of 3 L/kg. Further, in data set [4], the bioavailability came to 0.5%. Besides, the logD in data set [5] is 4.9.
In data set [5], `O=C(c1csc2ccccc12)N(CCc1ccc(Cl)cc1)C1CCN(CCc2ccc(F)cc2F)CC1` came in with a logD of 4.1.
Turning to `O=C(Nc1ccc(F)cc1F)N1CCC(N(CCc2ccc(Cl)cc2)C(=O)c2csc3ccccc23)CC1`, the logP in [7] is above 5. The molecule further registered a half-life in [6] of 11 min.
`O=C(c1cccc2ccccc12)N(CCc1ccc(Cl)cc1)[C@H]1CC[C@H](O)CC1`: the half-life in [8] is 84 min; in data set [6], 20 min. The same molecule gave a clearance in data set [9] of 29 mL/min/kg. In addition, the Vd in data set [10] worked out at 3.5 L/kg. Further, the logD in data set [5] was above 5.

The record behind these values is ChEMBL document CHEMBL1152224, “Small, non-peptide C5a receptor antagonists: part 1” (Bioorg Med Chem Lett, 2008).
